Measurements as given in patent publication US20030158094A1, “Combination product of an aryl-substituted propanolamine derivative with at least one other active ingredient and the use of the product” (priority 2001, published 2003).

Experiments:
Assay type in all cases: in vivo
[1] = system: Male Syrian hamsters (Mesocricetus auratus); assay: Plasma lipids in cholesterol-fed hamsters, combination of compound C1 with Caromax; details: 30 mg/kg/d C1, feed +0.1% CH
Method: (§1) Hamsters were used for the biological testing of the combination product of the invention. Male Syrian hamsters (Mesocricetus auratus) from 8 to 10 weeks of age were used for the experiment. The animals received a standard feed (Teklad 8604M) supplemented with 0.1% cholesterol. An additional normal control group received only standard feed. The test substances were administered orally by gavage once a day on 12 consecutive days, and the control group was treated with the vehicle. Feces were collected on days 5 and 6 of the experiment for bile acid analysis. Retroorbital blood was taken from the animals on day 10 of the experiment, and the lipid levels in the plasma were determined. Radioactive tracers were administered orally to the animals on day 11 of the experiment to determine the cholesterol absorption in analogy to the method described by Zilversmith et al. On day 13 of the experiment, the animals were sacrificed, and the animals' livers were removed for cholesterol analysis and preparation of microsomes. The 7α-hydroxylase activity was determined in the liver microsomes ex vivo by a modified method of Hylemon et al. [table] Male Syrian hamsters (Mesocricetus auratus) supplied by Harlan 80-100 g at the start of adaptation Safety parameters (CH; TG; ALAT/ASAT; AP; HDL/LDL) Preliminary value and 2 days before end of the experiment (isoflurane anesthesia) by retroorbital blood sampling

[2] = system: Male Syrian hamsters (Mesocricetus auratus); assay: Liver cholesterol (HPLC) in cholesterol-fed hamsters, C1 with Caromax; details: 30 mg/kg/d C1, feed +0.1% CH
Method: as §1, with “Liver cholesterol (HPLC)=1×500 mg in EtOH/KOH (sample is also used for CH synthesis)” for “Male Syrian hamsters (Mesocricetus auratus) supplied by Harlan 80-100 g at the start of adaptation Safety parameters (CH; TG; ALAT/ASAT; AP; HDL/LDL) Preliminary value and 2 days before end of the experiment (isoflurane anesthesia) by retroorbital blood sampling”

[3] = system: Male Syrian hamsters (Mesocricetus auratus); assay: Liver cholesterol synthesis (14C-octanoate i.v.) in cholesterol-fed hamsters, C1 with Caromax; details: 30 mg/kg/d C1, feed +0.1% CH
Method: Hamsters were used for the biological testing of the combination product of the invention. Male Syrian hamsters (Mesocricetus auratus) from 8 to 10 weeks of age were used for the experiment. The animals received a standard feed (Teklad 8604M) supplemented with 0.1% cholesterol. An additional normal control group received only standard feed. The test substances were administered orally by gavage once a day on 12 consecutive days, and the control group was treated with the vehicle. [table] Cholesterol Synthesis i.v. administration of ^14C-octanoate 10 μCi/100 g of animal 1 hour before the end of the experiment (isoflurane anesthesia) Removal of 2×500 mg of liver in EtOH/KOH

[4] = system: Male Syrian hamsters (Mesocricetus auratus); assay: Plasma lipids in cholesterol-fed hamsters, ezetimibe (K00 04513) plus C1; details: feed +0.1% CH; for HDL % / Plasma parameter Cholesterol % / Plasma parameter LDL % / Plasma parameter Triglycerides %: cholesterol ctr. = 100
Method: as §1, with “[table]” for “[table] Male Syrian hamsters (Mesocricetus auratus) supplied by Harlan 80-100 g at the start of adaptation Safety parameters (CH; TG; ALAT/ASAT; AP; HDL/LDL) Preliminary value and 2 days before end of the experiment (isoflurane anesthesia) by retroorbital blood sampling”

[5] = system: Male Syrian hamsters (Mesocricetus auratus); assay: Liver cholesterol (HPLC) in cholesterol-fed hamsters, ezetimibe (K00 04513) plus C1; details: feed +0.1% CH; for Liver Cholesterol %: cholesterol ctr. = 100
Method: as §1, with “[table]” for “[table] Male Syrian hamsters (Mesocricetus auratus) supplied by Harlan 80-100 g at the start of adaptation Safety parameters (CH; TG; ALAT/ASAT; AP; HDL/LDL) Preliminary value and 2 days before end of the experiment (isoflurane anesthesia) by retroorbital blood sampling”

[6] = system: Male Syrian hamsters (Mesocricetus auratus); assay: Cholesterol absorption (3H-sitosterol/14C-cholesterol, feces) in hamsters, ezetimibe (K00 04513) plus C1; details: feed +0.1% CH; for CH absorption % of ctr.: normal ctr. = 100.0
Method: as §1, with “[table]” for “[table] Male Syrian hamsters (Mesocricetus auratus) supplied by Harlan 80-100 g at the start of adaptation Safety parameters (CH; TG; ALAT/ASAT; AP; HDL/LDL) Preliminary value and 2 days before end of the experiment (isoflurane anesthesia) by retroorbital blood sampling”

[7] = group 3, 0.1 mg/kg/d K 00 04513
[8] = group 4, 0.3 mg/kg/d K 00 04513

O=C(CCCCCCCCCCNC(=O)[C@H](O)[C@@H](O)[C@H](O)[C@H](O)CO)Nc1ccccc1[C@@H](Nc1ccccn1)[C@H](c1ccccn1)[C@H](O)c1ccccc1 [C1]
Cholesterol [1]: 3.58 mmol/L | HDL-cholesterol [1]: 2.42 mmol/L | LDL-cholesterol [1]: 0.88 mmol/L | Triglycerides [1]: 1.49 mmol/L | Cholesterol % ([1]; hyperlip. ctr. = 100): 89% | HDL-cholesterol % ([1]; hyperlip. ctr. = 100): 96% | LDL-cholesterol % ([1]; hyperlip. ctr. = 100): 75% | Triglycerides % ([1]; hyperlip. ctr. = 100): 102% | Liver Cholesterol [2]: 14.72 mg/g | Liver Cholesterol % ([2]; hyperlip. ctr. = 100): 54% | Liver Sterol biosynthesis [3]: 73 dpm/g/h | Liver Sterol biosynthesis % ([3]; normal ctr. I = 100): 18% | HDL ([4]; group 6, 3 mg/kg/d C1): 2.20 mmol/L | Plasma parameter Cholesterol ([4]; group 6, 3 mg/kg/d C1): 3.92 mmol/L | Plasma parameter LDL ([4]; group 6, 3 mg/kg/d C1): 0.98 mmol/L | Plasma parameter Triglycerides ([4]; group 6, 3 mg/kg/d C1): 1.84 mmol/L | HDL % ([4]; group 6, 3 mg/kg/d C1): 102% | Plasma parameter Cholesterol % ([4]; group 6, 3 mg/kg/d C1): 96% | Plasma parameter LDL % ([4]; group 6, 3 mg/kg/d C1): 87% | Plasma parameter Triglycerides % ([4]; group 6, 3 mg/kg/d C1): 90% | HDL ([4]; group 7, 10 mg/kg/d C1): 2.00 mmol/L | Plasma parameter Cholesterol ([4]; group 7, 10 mg/kg/d C1): 3.70 mmol/L | Plasma parameter LDL ([4]; group 7, 10 mg/kg/d C1): 0.78 mmol/L | Plasma parameter Triglycerides ([4]; group 7, 10 mg/kg/d C1): 2.35 mmol/L | HDL % ([4]; group 7, 10 mg/kg/d C1): 93% | Plasma parameter Cholesterol % ([4]; group 7, 10 mg/kg/d C1): 90% | Plasma parameter LDL % ([4]; group 7, 10 mg/kg/d C1): 69% | Plasma parameter Triglycerides % ([4]; group 7, 10 mg/kg/d C1): 116% | HDL ([4]; group 8, 30 mg/kg/d C1): 2.02 mmol/L | Plasma parameter Cholesterol ([4]; group 8, 30 mg/kg/d C1): 3.66 mmol/L | Plasma parameter LDL ([4]; group 8, 30 mg/kg/d C1): 0.80 mmol/L | Plasma parameter Triglycerides ([4]; group 8, 30 mg/kg/d C1): 2.02 mmol/L | HDL % ([4]; group 8, 30 mg/kg/d C1): 94% | Plasma parameter Cholesterol % ([4]; group 8, 30 mg/kg/d C1): 89% | Plasma parameter LDL % ([4]; group 8, 30 mg/kg/d C1): 71% | Plasma parameter Triglycerides % ([4]; group 8, 30 mg/kg/d C1): 99% | Liver Cholesterol ([5]; group 6, 3 mg/kg/d C1): 10.99 mg/g | Liver Cholesterol % ([5]; group 6, 3 mg/kg/d C1): 100% | Liver Cholesterol ([5]; group 7, 10 mg/kg/d C1): 9.50 mg/g | Liver Cholesterol % ([5]; group 7, 10 mg/kg/d C1): 86% | Liver Cholesterol ([5]; group 8, 30 mg/kg/d C1): 7.18 mg/g | Liver Cholesterol % ([5]; group 8, 30 mg/kg/d C1): 65% | CH absorption % absorption ([6]; group 6, 3 mg/kg/d C1): 39.6% | CH absorption % of ctr. ([6]; group 6, 3 mg/kg/d C1): ±80.9% | CH absorption % absorption ([6]; group 7, 10 mg/kg/d C1): 49.1% | CH absorption % of ctr. ([6]; group 7, 10 mg/kg/d C1): ±100.1% | CH absorption % absorption ([6]; group 8, 30 mg/kg/d C1): 38.3% | CH absorption % of ctr. ([6]; group 8, 30 mg/kg/d C1): ±78.2%

O=C1[C@H](CC[C@H](O)c2ccc(F)cc2)[C@@H](c2ccc(O)cc2)N1c1ccc(F)cc1 [K 00 04513, ezetimibe, reference compound]
HDL [4, 7]: 1.98 mmol/L | Plasma parameter Cholesterol [4, 7]: 3.73 mmol/L | Plasma parameter LDL [4, 7]: 1.06 mmol/L | Plasma parameter Triglycerides [4, 7]: 1.99 mmol/L | HDL % [4, 7]: 92% | Plasma parameter Cholesterol % [4, 7]: 91% | Plasma parameter LDL % [4, 7]: 94% | Plasma parameter Triglycerides % [4, 7]: 98% | HDL [4, 8]: 1.92 mmol/L | Plasma parameter Cholesterol [4, 8]: 2.99 mmol/L | Plasma parameter LDL [4, 8]: 0.40 mmol/L | Plasma parameter Triglycerides [4, 8]: 1.87 mmol/L | HDL % [4, 8]: 89% | Plasma parameter Cholesterol % [4, 8]: 73% | Plasma parameter LDL % [4, 8]: 35% | Plasma parameter Triglycerides % [4, 8]: 92% | HDL ([4]; group 5, 1 mg/kg/d K 00 04513): 1.71 mmol/L | Plasma parameter Cholesterol ([4]; group 5, 1 mg/kg/d K 00 04513): 2.53 mmol/L | Plasma parameter LDL ([4]; group 5, 1 mg/kg/d K 00 04513): 0.23 mmol/L | Plasma parameter Triglycerides ([4]; group 5, 1 mg/kg/d K 00 04513): 1.79 mmol/L | HDL % ([4]; group 5, 1 mg/kg/d K 00 04513): 80% | Plasma parameter Cholesterol % ([4]; group 5, 1 mg/kg/d K 00 04513): 62% | Plasma parameter LDL % ([4]; group 5, 1 mg/kg/d K 00 04513): 20% | Plasma parameter Triglycerides % ([4]; group 5, 1 mg/kg/d K 00 04513): 88% | Liver Cholesterol [5, 7]: 11.52 mg/g | Liver Cholesterol % [5, 7]: 105% | Liver Cholesterol [5, 8]: 2.00 mg/g | Liver Cholesterol % [5, 8]: 18% | Liver Cholesterol ([5]; group 5, 1 mg/kg/d K 00 04513): 1.78 mg/g | Liver Cholesterol % ([5]; group 5, 1 mg/kg/d K 00 04513): 16% | CH absorption % absorption [6, 7]: 47.4% | CH absorption % of ctr. [6, 7]: ±96.8% | CH absorption % absorption [6, 8]: 15.6% | CH absorption % of ctr. [6, 8]: ±31.8% | CH absorption % absorption ([6]; group 5, 1 mg/kg/d K 00 04513): 5.8% | CH absorption % of ctr. ([6]; group 5, 1 mg/kg/d K 00 04513): ±11.9%
